Data as given in patent US20050107447A1, “Novel lysophosphatidic acid receptor agonists and antagonists” (priority 2003, published 2005).

Target: LPA1 (Mus musculus, UniProt P61793)
Assay: GTP[γ35S] binding, LPA1 transfected HEK293T (or RH7777) cell membranes
Type: biochemical
Set-up: expressed in transfected cells; host or cells: HEK293T (transient, with G protein plasmids); some results from RH7777 rat hepatoma membranes transfected with LPA1 DNA only
Conditions: not given
Experimental: (§1) The appropriate receptor plasmid DNA (encoding mouse LPA1, human LPA2 or human LPA3) was mixed with equal amounts of expression plasmids (pcDNA3) encoding a mutated (C351F) rat Gi2a, cow β1, and γ2 proteins and these DNAs were used to transfect monolayers of HEK293T cells (where ‘T’ indicates expression of the SV-40 virus large T antigen) using the calcium phosphate precipitate method. After about 60 hours, cells were harvested, membranes were prepared, aliquoted and stored at −70° C. until use.
(§2) The GTP[35 γS] assay was performed as described by us previously. Membranes containing 5 ug of protein were incubated in 0.1 ml GTP-binding buffer (in mM: HEPES 50, NaCl 100, MgCl2 10, pH7.5) containing […], […], 0.1 nM GTP[35 γS] (1200 Ci/mmol), and indicated lipid(s) for 30 minutes at 30° C. Samples were analyzed for membrane-bound radionuclide using a Brandel Cell Harvester (Gaithersburg, Md.).
(§3) The X-intercept of the linear transformation is equal to the inverse log of the κ1.
(§4) Membranes prepared from these cells are used to measure GTPγ[^35S] binding as a function of test compound concentration. The resulting dose-response curves provide relative potency (EC50) and efficacy, (Emax) for the test compounds.

Sequence of LPA1 (P61793 whole entry): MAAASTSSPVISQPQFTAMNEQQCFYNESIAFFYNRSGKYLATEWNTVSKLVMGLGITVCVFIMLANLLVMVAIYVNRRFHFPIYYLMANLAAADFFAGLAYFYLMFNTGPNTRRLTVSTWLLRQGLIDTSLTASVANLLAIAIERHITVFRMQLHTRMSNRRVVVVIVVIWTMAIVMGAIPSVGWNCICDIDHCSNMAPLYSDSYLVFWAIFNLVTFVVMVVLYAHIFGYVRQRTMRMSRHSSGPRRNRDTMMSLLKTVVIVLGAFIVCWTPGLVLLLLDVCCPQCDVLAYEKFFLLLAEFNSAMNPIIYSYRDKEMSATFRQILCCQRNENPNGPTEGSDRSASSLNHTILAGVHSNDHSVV

| SMILES | Emax |
| --- | --- |
| CCCCCCCC/C=C\CCCCCCCC(=O)N[C@@H](COP(=O)(O)O)C(C)C [VPC12098] | 51% |
| CCCCCCCC/C=C\CCCCCCCC(=O)N[C@@H](C)COP(=O)(O)O [VPC12101] | 48.1% |
| CCCCCCCC/C=C\CCCCCCCC(=O)N[C@H](CC)COP(=O)(O)O [VPC12109] | 66.8% |
| CCCCCCCC/C=C\CCCCCCCC(=O)N[C@@H](CC)COP(=O)(O)O [VPC12115] | 62.3% |

Same assay, conditions: agonist, GTP[γ35S] binding

| SMILES | EC50 |
| --- | --- |
| CCCCCCCC/C=C\CCCCCCCC(=O)N[C@@H](COP(=O)(O)O)C(C)C [VPC12098] | 0.0738 µM |
| CCCCCCCC/C=C\CCCCCCCC(=O)N[C@@H](C)COP(=O)(O)O [VPC12101] | 2.9 µM |
| CCCCCCCC/C=C\CCCCCCCC(=O)N[C@H](CC)COP(=O)(O)O [VPC12109] | 0.0358 µM |
| CCCCCCCC/C=C\CCCCCCCC(=O)N[C@@H](CC)COP(=O)(O)O [VPC12115] | 1.58 µM |

Target: LPA2 (Homo sapiens, UniProt Q9HBW0)
Assay: GTP[γ35S] binding, LPA2 transfected HEK293T cell membranes
Type: biochemical
Set-up: expressed in transfected cells; host or cells: HEK293T (transient, calcium phosphate)
Conditions: not given
Experimental: as §1, §2, §3, §4

Sequence of LPA2 (Q9HBW0 whole entry): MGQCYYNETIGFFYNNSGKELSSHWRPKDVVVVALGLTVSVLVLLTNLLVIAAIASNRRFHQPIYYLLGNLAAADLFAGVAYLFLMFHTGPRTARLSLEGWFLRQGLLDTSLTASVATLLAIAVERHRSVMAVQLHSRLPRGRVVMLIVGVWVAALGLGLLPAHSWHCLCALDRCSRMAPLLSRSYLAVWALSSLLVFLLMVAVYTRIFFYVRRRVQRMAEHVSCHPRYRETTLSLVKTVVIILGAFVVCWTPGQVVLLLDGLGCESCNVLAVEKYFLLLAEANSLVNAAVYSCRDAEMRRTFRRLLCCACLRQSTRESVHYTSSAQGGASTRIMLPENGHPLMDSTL

| SMILES | Emax |
| --- | --- |
| CCCCCCCC/C=C\CCCCCCCC(=O)N[C@@H](COP(=O)(O)O)C(C)C [VPC12098] | 85.8% |
| CCCCCCCC/C=C\CCCCCCCC(=O)N[C@@H](C)COP(=O)(O)O [VPC12101] | 6.9% |
| CCCCCCCC/C=C\CCCCCCCC(=O)N[C@H](CC)COP(=O)(O)O [VPC12109] | 92.6% |
| CCCCCCCC/C=C\CCCCCCCC(=O)N[C@@H](CC)COP(=O)(O)O [VPC12115] | 85.6% |

Same assay, conditions: agonist, GTP[γ35S] binding

| SMILES | EC50 |
| --- | --- |
| CCCCCCCC/C=C\CCCCCCCC(=O)N[C@@H](COP(=O)(O)O)C(C)C [VPC12098] | 0.799 µM |
| CCCCCCCC/C=C\CCCCCCCC(=O)N[C@@H](C)COP(=O)(O)O [VPC12101] | > 5 µM |
| CCCCCCCC/C=C\CCCCCCCC(=O)N[C@H](CC)COP(=O)(O)O [VPC12109] | 0.162 µM |
| CCCCCCCC/C=C\CCCCCCCC(=O)N[C@@H](CC)COP(=O)(O)O [VPC12115] | 4.28 µM |

Target: T1, LPA3 (Homo sapiens, UniProt Q9UBY5)
T1 sequence (Q9UBY5 1-353): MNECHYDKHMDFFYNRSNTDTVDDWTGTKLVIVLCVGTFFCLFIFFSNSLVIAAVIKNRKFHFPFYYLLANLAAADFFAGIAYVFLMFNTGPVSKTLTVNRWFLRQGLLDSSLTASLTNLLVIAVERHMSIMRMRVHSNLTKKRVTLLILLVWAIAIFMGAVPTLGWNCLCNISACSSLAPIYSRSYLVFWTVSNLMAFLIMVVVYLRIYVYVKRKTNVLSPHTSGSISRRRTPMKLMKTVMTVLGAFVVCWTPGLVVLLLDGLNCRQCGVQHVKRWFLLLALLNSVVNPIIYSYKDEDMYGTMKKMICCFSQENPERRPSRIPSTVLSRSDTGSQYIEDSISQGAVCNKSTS
Assay: GTP[γ35S] binding, LPA3 transfected HEK293T cell membranes
Type: biochemical
Set-up: expressed in transfected cells; host or cells: HEK293T (transient, calcium phosphate)
Conditions: not given
Experimental: as §1, §2, §3, §4

| SMILES | Emax |
| --- | --- |
| CCCCCCCC/C=C\CCCCCCCC(=O)N[C@@H](COP(=O)(O)O)C(C)C [VPC12098] | 45.3% |
| CCCCCCCC/C=C\CCCCCCCC(=O)N[C@@H](C)COP(=O)(O)O [VPC12101] | 9.7% |
| CCCCCCCC/C=C\CCCCCCCC(=O)N[C@H](CC)COP(=O)(O)O [VPC12109] | 83.5% |
| CCCCCCCC/C=C\CCCCCCCC(=O)N[C@@H](CC)COP(=O)(O)O [VPC12115] | 89.3% |

Same assay, conditions: agonist, GTP[γ35S] binding

| SMILES | EC50 |
| --- | --- |
| CCCCCCCC/C=C\CCCCCCCC(=O)N[C@@H](COP(=O)(O)O)C(C)C [VPC12098] | 3.81 µM |
| CCCCCCCC/C=C\CCCCCCCC(=O)N[C@@H](C)COP(=O)(O)O [VPC12101] | > 5 µM |
| CCCCCCCC/C=C\CCCCCCCC(=O)N[C@H](CC)COP(=O)(O)O [VPC12109] | 1.08 µM |
| CCCCCCCC/C=C\CCCCCCCC(=O)N[C@@H](CC)COP(=O)(O)O [VPC12115] | 4.98 µM |
